PMC9969401, “Discovery of 2-(3-Benzamidopropanamido)thiazole-5-carboxylate Inhibitors of the Kinesin HSET (KIFC1) and the Development of Cellular Target Engagement Probes” (Journal of Medicinal Chemistry, 2023)

How the values were obtained:
[1] = BALB/c mouse plasma stability assay; format: in vitro ADME; settings: read-out: estimated half-life in plasma
DLD1 cells (4NCA and 4N) = format: cell-based; settings: human
Procedure: Inhibition of HSET-mediated clustering was measured using a phenotypic assay measuring the formation of multipolar metaphase spindles in DLD1 cells with (4NCA) or without (4N) centrosome amplification. 4NCA cells were generated by treating 2N DLD1 cells with 2 μΜ DCB for 24 h, washed, and released in growth media for 24 h. 4N and 4NCA DLD1 cells were plated in 96-well ibidi μ-Clear plates (IB-89626, ibidi) with a no. 1.5 polymer coverslip bottom with optimal imaging properties. To enrich the mitotic population, cells were first treated for 3.5 h with 8 μM pro-TAME (I-440-01M, R&D system), an inhibitor of APC/C that transiently arrests cells in metaphase without affecting the structure of the spindle. Following the initial arrest, cells were treated with HSET compounds in the presence of 8 μM MG-132 (S2619, SelleckChem), a proteasome inhibitor that helps to maintain the metaphase arrest, where the number of spindle poles/cell can be optimally quantified by an automated segmentation analysis.
Cells were then fixed in methanol and stained for 3 h for mitotic pole marker aurora A (1:1000 610939 mouse anti-IAK1, BD Biosciences) and phosphorylated histone H3 (1:1500 ab47297 anti-histone H3 pS10, Abcam) as a marker of mitotic cells in 1.5% FBS in PBS. Following primary antibody treatment, cells were incubated with secondary antibodies Alexa Fluor 488 goat antimouse and Alexa Fluor 555 goat antirabbit (1:1500, A11029 and A21429, respectively, Life Technologies) together with 1 μg/mL DAPI (D9542, Sigma) in 1.5% FBS in PBS. Image acquisition was performed at 10× using the GE INCELL 2200 High Content Imaging System (Cytiva) and analyzed using the InCell Investigator software. Mitotic cells were identified by high pHH3 staining and were scored as multipolar if they had more than two mitotic spindle poles. The percentage of multipolar mitoses was calculated by dividing the number of multipolar mitoses by the total of all visible mitoses in one well of a 96-well plate (n > 100 for each replicate, two replicates per concentration point).
3. […]

DLD1 HSET KO cells = experiment: Click probe localization imaging in DLD1 HSET KO cells (negative control); format: cell-based, human; settings: DLD1 HSET KO, Tz-Cy5 800nM
Procedure: The Cy-5 tetrazine dye selected for this experiment is not cell-permeable, thus fixation and permeabilization of cells were necessary prior to its addition. Experiments were conducted in DLD1 4N cells and, as a negative control, isogenic 2N DLD1 HSET KO cells in which HSET expression was prevented by the disruption of the HSET gene using CRISPR. Cells were treated first with proTAME for 2 h to accumulate mitotic events, followed by treatment with the TCO probe 40 for 45 min. The live cells were then fixed and permeabilized before treatment with the tetrazine-Cy5 dye and incubation to allow the IEDDA reaction to occur. Additionally, the cells were stained for the endogenous HSET protein using indirect immunofluorescence and imaged to observe the fluorescence from both the TCO probe and antibody-labeled HSET. […] A 3 μM concentration of the probe 40 gave an acceptable signal-to-noise ratio of around 2:1. Even under these optimal conditions, some residual uniform cytoplasmic Cy5 signal was observed within the cells. However, a clear Cy5 decoration of the mitotic spindle was seen, which overlapped with the signal from the antibody-probed endogenous HSET protein (Figures 2A and S6). […] We observed a 14–17-fold increase in signal in DLD1 4N cells treated with 40 relative to tetrazine-Cy5 alone. […] Comparing the intensity of click probe labeling coincident with the mitotic spindle in DLD1 4N cells to that in DLD1 HSET KO cells after both were treated with 40, we observed a twofold higher signal in the former.
Direct target engagement of active inhibitor 36 was measured by calculating its capacity to displace the TCO-containing probe 40. 4N DLD1 cells and DLD1 HSET KO cells (negative control) were plated in 96-well ibidi μ-Clear plates (IB-89626, ibidi). Cells were first treated for 2 h with 8 μM pro-TAME (I-440–01M, R&D system) to accumulate mitotic cells and were then treated with 8 μM MG-132 (S2619, SelleckChem) and 3 μM 40, alone or together with active inhibitor 36 in DMEM media with 1% FBS for 45 min. Cells were then washed three times in DMEM, with the second wash being incubated for 10 min to ensure the optimal reduction of unspecific compound binding. After an additional PBS wash, cells were then fixed in 4% PFA/PBS (15670799, Thermo Scientific) prior to incubation with 400 nM tetraszine-Cy5 (CLK-015-05, Jena Biosciences) in 1.5% FBS/PBS for 10 min at room temperature. Cells were permeabilized by the addition of 0.5% TritonX-100/PBS for 5 min before being stained overnight for Pericentrin (1:1500 ab28144 mouse anti-PCNT, Abcam) and KIFC1 (1:1500 12313S rabbit anti-KIFC1, Cell Signaling Technologies). Secondary antibodies Alexa Fluor 488 donkey antirabbit and Alexa Fluor 555 donkey antimouse (1:1500, A21206 and A31570, respectively, Life Technologies) were added together with 1 μg/mL DAPI (D9542, Sigma) in 1.5% FBS in PBS.
Plates were imaged at 40× using a Zeiss LSM980 confocal microscope with Airyscan 2. The subsequent analysis and quantification were performed using 3D image segmentation with the Arivis4D software. Mitotic cells were segmented by selecting for the highest density (integrated DAPI intensity/total volume), and the mitotic pole areas were segmented using the Pericentrin signal. The signal of the click probe (Cy5) and total KIFC1 (FITC) was measured on the mitotic pole area, and both were normalized to the control condition containing 40 probe alone. The ratio of probe per target (click probe pole integrated intensity signal/KIFC1 pole integrated intensity signal) was used to calculate the occupancy of the probe in the target protein and normalized to the control condition containing 40 probe alone (n > 100 for each replicate, two replicates per concentration point).

CCCOC(=O)c1sc(NC(=O)CCNC(=O)c2cccc(-c3noc(C)n3)c2)nc1C [Compound 32, Propyl 4-Methyl-2-(3-(3-(5-methyl-1,2,4-oxadiazol-3-yl)benzamido)propanamido)thiazole-5-carboxylate]
half-life [1]: 3.58 h
concentration at which cellular toxicity observed (DLD1 cells (4NCA and 4N)): > 15 µM

CCCOC(=O)c1sc(NC(=O)C[C@H](CCCNC)NC(=O)c2cccc(-c3noc(C)n3)c2)nc1C [Compound 35, Propyl (S)-4-Methyl-2-(3-(3-(5-methyl-1,2,4-oxadiazol-3-yl)benzamido)-6-(methylamino)hexanamido)thiazole-5-carboxylate]
concentration at which cellular toxicity observed (DLD1 cells (4NCA and 4N)): 60 µM

CCCOC(=O)c1sc(NC(=O)C[C@H](CCCN(C)C(=O)O[C@@H]2CC/C=C/CCC2)NC(=O)c2cccc(-c3noc(C)n3)c2)nc1C [Compound 38, Propyl 2-((S)-6-(((((S,E)-Cyclooct-4-en-1-yl)oxy)carbonyl)(methyl)amino)-3-(3-(5-methyl-1,2,4-oxadiazol-3-yl)benzamido)hexanamido)-4-methylthiazole-5-carboxylate]
Average Pixel intensity (DLD1 HSET KO cells; 5μM, Panel A: 3 quick washes at room temperature): 799
Average Pixel intensity (DLD1 HSET KO cells; 5μM, Panel B: 2 quick washes then 1 at 37 °C for 5 minutes): 752
Average Pixel intensity (DLD1 HSET KO cells; 5μM, Panel C: 2 quick washes then 1 at 37 °C for 10 minutes): 702
Average Pixel intensity (DLD1 HSET KO cells; 10μM, Panel A: 3 quick washes at room temperature): 1464
Average Pixel intensity (DLD1 HSET KO cells; 10μM, Panel B: 2 quick washes then 1 at 37 °C for 5 minutes): 1121
Average Pixel intensity (DLD1 HSET KO cells; 10μM, Panel C: 2 quick washes then 1 at 37 °C for 10 minutes): 803
